Drawing on publication PMC12394552, “Multi-biological activity evaluation of Sn(П), Zn(П) and Fe(П) complexes based on thiocarbohydrazide schiff bases: synthesis, spectroscopic investigations and fluorescence studies” (Scientific Reports, 2025), this text covers IC50 and MIC for one compound.

Assay [1] deals with Periodontal ligament fibroblasts (PDL). Description: SRB selective cytotoxicity in normal fibroblasts. As to conditions: Fibroblast. In kind it is cell-based. The procedure:
(§1) All malignancy cell lines were cultured in high glucose DMEM (Bio Whittaker, Verviers, Belgium) containing 10% FBS, 4-(2-hydroxyethyl)-1-piperazineethanesulfonic acid (HEPES) Buffer (10 mM), L-glutamine (2 mM), gentamicin (50 µg/mL), penicillin (100 U/mL), and streptomycin sulfate ([…]) from Sigma (St. Luis, MO, USA) whereas Sulforhodamine B was from Santa Cruz Biotechnology (Inc. Texas, USA). Surviving cancer cell lines provide numerous advantages; they provide a pure and continuous supply of cells, thus overcoming any ethical barriers concerning human tissue usage, and are cost-effective. For cytotoxicity screening, adherent monolayers of all procured malignancies’ cell lines were examined. Periodontal ligament fibroblasts (PDL) were used to determine selective cytotoxicity.

Another assay relates to RAW 264.7 macrophages. Briefly: SRB cytotoxicity on RAW 264.7 viability. The class given is cell-based. The following applies: Mus musculus, RAW264.7, read-out: RAW 264.7 viability IC50 value. The procedure: as §1
RAW 264.7 mouse macrophage cell line (ATCC® TIB-71) were cultured in high glucose DMEM supplemented with 10% (FBS), penicillin (100 U/mL), streptomycin (100 µg/mL), and L-glutamate (100 µg/mL) in a 37 °C humidified atmosphere with 95% air and 5% CO2. Confluent macrophages (2 × 10^5/well) were incubated with inflammation-priming lipopolysaccharide (LPS; Sigma, St. Luis, MO, USA) with either indomethacin as the reference agent[39] or treatment compounds at different concentrations (1.563-200 µM). Griess reagent was mixed with aliquots of cell culture media and incubated at R.T. for 10 min. Absorbance at 550 nm was determined using a microplate reader (Spectro Scan 80D UV-VIS spectrophotometer (Sedico Ltd., Nicosia, Cyprus). The nitrite concentration was determined by comparison with a sodium nitrite standard curve. SRB cytotoxicity protocol was performed for evaluation of the effect of the studied test compounds on RAW 264.7 viability.

In assay [2] the test system is Staphylococcus aureus ATCC 6538. Description: MIC determination, broth microdilution (EUCAST adapted). The class given is cell-based. As to conditions: ATCC6538, read-out: S. aureus MIC value. Here is the method:
(§2) The compounds were tested against Gram-positive bacteria (Staphylococcus aureus ATCC 6538), Gram-negative bacteria (Escherichia coli ATCC 8739) and yeast (Candida albicansATCC10231). […] For bacterial strains, the EUCAST (2025) method was adapted. A few colonies of each bacterial culture previously grown on Mueller-Hinton agar for 24–48 h were suspended in normal saline and adjusted to 0.5 McFarland (1.5 × 10^8 CFU/mL). A 1/10 dilution was prepared in Mueller-Hinton broth (MHB) for the inoculation. In the wells of a 96-well flat-bottom microtiter plate, double serial dilutions of each compound were prepared in MHB. Each well was inoculated with the bacteria to achieve ca. 5 × 10^5 CFU/mL, and the plates were incubated at 37 °C overnight. Positive control (bacteria in culture medium only) and negative control (culture medium) were prepared. Each compound was tested in duplicate. After incubation, the plates were inspected visually for growth inhibition. To test the antimicrobial activity of DMSO, double serial dilutions of DMSO in broth medium were prepared and processed as the samples, but without the addition of the compounds. The antibacterial drug ciprofloxacin was used as a reference for comparison.
(§3) For Candida albicans, the same procedure applied to bacteria was used, except after inoculation, the plates were incubated at 35 °C for 24 h, and after incubation, the absorbance was measured at 530 nm using a plate reader. […] The absorbance of the wells was corrected by subtracting the absorbance of the blank. […] The antifungal drug fluconazole was used as a reference for comparison.

In assay [3] the test system is Escherichia coli ATCC 8739. The assay is described as above. In kind it is cell-based. As to conditions: ATCC8739, read-out: E. coli MIC value. The procedure: as §2, §3
Assay [4] can be described thus: DPPH free radical scavenger assay. As to conditions: values given in µM; 1 h incubation, 517 nm; test range 6.25–200 µM; mean ± SD n = 4. The text has this:
This method depends on the reduction of the radicals, resulting in a color change from oxidized purple to reduced yellow. Principally, Diphenyl-2-picryl-hydrazyl (DPPH) undergoes reduction in methanol (MeOH) solution, in the presence of a hydrogen-donating compound, due to the formation of the non-radical form DPPH-H. This color change can be quantitatively measured using a 515–520 nm spectrophotometer. In contrast to other radical scavenging assays, a DPPH radical is stable and can provide reproducible spectroscopic values[41],[42]. A DPPH solution (0.2 mM) was diluted with MeOH and then mixed with treatment compounds as well as ascorbic acid in a concentration ratio of 1:1 using a 96-well plate (so that a final concentration range 6.25–200 µM was obtained for test agents); the treated solution was incubated one hour isolated from light. Finally, a change in absorbance at 517 nm wavelength was measured using a microplate reader (Bio-Tek Instrument, USA). Ascorbic acid was the robust and classical standard radical scavenging reference agent for comparison purposes[43],[44]. The calculation of the DPPH radical scavenging activity inhibition was determined by the following equation, where A represents photometric absorbance: in % = (A control – A sample) / A control x 100%)[45].

The structures appear in SMILES notation. Values after ≈ are worked out from the molar mass of the structure shown.

Regarding `COc1ccc(/C=N/NC(=S)N/N=C/c2ccc(OC)cc2)cc1` [L2, 1,5-bis (4-methoxyanisaldehyde) thiocarbohydrazine], the IC50 was above 200 µM in assay [1], above 200 µM with RAW 264.7 macrophages and 18.1 ± 2.04 µM in assay [4]. The figures for the MIC in assay [2] and in assay [3] were 15.6 µg/mL (≈ 45.6 µM) and 31.3 µg/mL (≈ 91.4 µM), respectively.
